Measurements from patent US20250361274A1, “PEPTIDE AND PEPTIDE-CONTAINING AGENT” (PEPTIDREAM INC., priority 2022, published 2025).
Numbered stars: 1 amine (or outer) side, 2 acyl side, 3 side chain; on linkers, the order of the positions; unused ones are H or OH. Bridge positions count the residues as written; N and C are the ends. Square brackets hold non-standard residues; d marks the D form. Side chains are listed from the residue outwards. Peptide text beside a SMILES is read from it. I, II: the chains in the order shown. * marks the point of attachment. ξ: configuration not given here. X10 = N=C(N)NCCC[C@H](CC(=O)[C@H](CCCCNC(=O)N1CCN(CC(=O)O)CC1)N[*:2])C(=O)[*:1]; X9 = O=C([C@H](Cc1ccc(-c2cccc(F)c2)cc1)N[*:1])[*:2]; 3Pal(6-Ph) = N[C@@H](Cc1ccc(-c2ccccc2)nc1)C(=O)O; X3 = O=C(C[C@@H](Cc1ccc(F)cc1)C(=O)[*:1])C[*:2]; Phe(4-COOH) = N[C@@H](Cc1ccc(C(=O)O)cc1)C(=O)O; NMePhe(4-Me) = CN[C@@H](Cc1ccc(C)cc1)C(=O)O; Piperazinyl(4-CH2COOH) = O=C(O)CN1CCN(*)CC1; Bip = N[C@@H](Cc1ccc(-c2ccccc2)cc1)C(=O)O; cisHyp = O=C(O)[C@@H]1C[C@H](O)CN1; Hyp = O=C(O)[C@@H]1C[C@@H](O)CN1; NMeF = CN[C@@H](Cc1ccccc1)C(=O)O; Aad = N[C@@H](CCCC(=O)O)C(=O)O; Cha = N[C@@H](CC1CCCCC1)C(=O)O; β3hC = N[C@@H](CS)CC(=O)O; X5 = O=C(C[*:1])[*:2]; CO = O=C([*:1])[*:2]; ξC = NC(CS)C(=O)O; βAla = NCCC(=O)O

What was measured:
BMP4 = biological target: T1, BMP4 (Homo sapiens, UniProt P12644); test: BMP4 signal transduction inhibitory activity: SMAD1 phosphorylation by BMP4 stimulus, AlphaLISA SureFire, A549 cells; format: cell-based; details: for aLISA BMP4: A549 cells, SMAD1 phosphorylation, peptides of Synthesis 2, peptide 0.02, 0.2, 2 nM
T1 sequence (P12644 293-408): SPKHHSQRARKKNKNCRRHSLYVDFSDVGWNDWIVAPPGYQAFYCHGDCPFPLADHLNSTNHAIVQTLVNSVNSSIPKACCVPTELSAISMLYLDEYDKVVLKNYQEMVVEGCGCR

BMP7 = biological target: T2, BMP7 (Homo sapiens, UniProt P18075); test: BMP7 signal transduction inhibitory activity: SMAD1 phosphorylation by BMP7 stimulus, A549 cells; format: cell-based; details: for aLISA BMP7: A549 cells, 10 nM BMP7, peptides of Synthesis 2, peptide 1, 10, 100 nM
T2 sequence (P18075 293-431): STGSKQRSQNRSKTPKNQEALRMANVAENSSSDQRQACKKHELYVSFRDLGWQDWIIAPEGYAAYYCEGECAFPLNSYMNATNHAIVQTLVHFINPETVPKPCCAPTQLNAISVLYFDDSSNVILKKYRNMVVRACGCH
Procedure, shortened: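 Inhibition is read as reduced BMP7-driven SMAD1 phosphorylation in human A549 cells, with the BMP7 stimulus at 10 nM. Three-point peptide concentrations spanned 1–1,000 nM depending on the peptide series. Some peptides received eight-point, 1/3-ratio titrations from 100 nM or 1,000 nM, alongside a Noggin control.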

CC(C)[C@@H]1NC(=O)[C@H](Cc2ccc(C(=O)O)cc2)NC(=O)[C@H](C(C)C)NC(=O)[C@H](CCCNC(=N)N)NC(=O)[C@H](CCC(=O)O)NC(=O)CSCC(C(=O)NCC(N)=O)NC(=O)[C@H](CO)NC(=O)[C@H](Cc2ccc(C(=O)O)cc2)NC(=O)[C@H](Cc2ccc(C(=O)O)cc2)NC(=O)[C@H](Cc2ccc(O)cc2)NC(=O)[C@H](Cc2ccc(-c3cccc(F)c3)cc2)NC(=O)[C@@H]2C[C@@H](O)CN2C(=O)[C@H](Cc2ccc(O)cc2)NC(=O)[C@H](CCCCNC(=O)N2CCN(CC(=O)O)CC2)NC(=O)[C@H](Cc2ccc(-c3ccccc3)nc2)NC(=O)[C@H](CCCNC(=N)N)CC(=O)[C@H](CCCCNC(=O)N2CCN(CC(=O)O)CC2)NC1=O (stereo partly shown) [SEQ ID No. 311, ClAc-E-R-V-F4COO-V-KCOpipzaa-R-3Py6Ph-KCOpipzaa-Y-Hyp-Bph3F-Y-F4COO-F4COO-S-C-G-NH2] (I: [3Pal(6-Ph)]K([CO-Piperazinyl(4-CH2COOH)])Y[Hyp][X9]Y[Phe(4-COOH)][Phe(4-COOH)]S[ξC]G-NH2 / II: ERV[Phe(4-COOH)]V; linker I:10-II:N via X5; linker I:N-II:C via X10)
aLISA BMP4 (BMP4): A (showed an inhibitory activity of 50% or more in a zone to which the peptide was added to in an amount of 0.2 nM) | aLISA BMP7 (BMP7): C (showed less than 50% of inhibitory activity in 10 nM-addition zone and showed 50% or more of inhibitory activity in 100 nM-addition zone)

CC(C)C[C@@H]1NC(=O)[C@H](Cc2ccccc2)N(C)C(=O)[C@H](CCCC(=O)O)NC(=O)[C@H](CC2CCCCC2)NC(=O)[C@H](CCC(=O)O)NC(=O)[C@H](CC(=O)O)NC(=O)CNC(=O)[C@H](Cc2ccc(-c3ccccc3)nc2)NC(=O)CNC(=O)[C@H](Cc2ccccc2)N(C)C(=O)CNC(=O)[C@H](Cc2ccccc2)NC(=O)CSC[C@@H](C(=O)NCCC(=O)N[C@H](CCC(=O)O)C(=O)O)NC(=O)[C@@H]2C[C@H](O)CN2C1=O [SEQ ID No. 415, ClAc-F-G-MeF-G-3Py6Ph-G-D-E-Cha-Hgl-MeF-L-P4Sh-C-bA-de-OH] ({CH2CO}-FG[NMeF]G[3Pal(6-Ph)]GDE[Cha][Aad][NMeF]L[cisHyp]C[βAla][dE]-OH; thioether N-14)
aLISA BMP4 (BMP4): A (showed an inhibitory activity of 50% or more in a zone to which the peptide was added to in an amount of 0.2 nM) | aLISA BMP7 (BMP7): C (showed less than 50% of inhibitory activity in 10 nM-addition zone and showed 50% or more of inhibitory activity in 100 nM-addition zone)

Cc1ccc(C[C@H]2C(=O)N[C@@H](CC(C)C)C(=O)N3C[C@@H](O)C[C@H]3C(=O)N[C@H](CC(=O)NCCC(=O)N[C@H](CCC(=O)O)C(=O)O)CSCC(=O)C[C@@H](Cc3ccc(F)cc3)C(=O)NCC(=O)N(C)[C@@H](Cc3ccccc3)C(=O)NCC(=O)N[C@@H](Cc3ccc(-c4ccccc4)nc3)C(=O)NCC(=O)N[C@@H](CC(=O)O)C(=O)N[C@@H](CCC(=O)O)C(=O)N[C@@H](CC3CCCCC3)C(=O)N[C@@H](CCCC(=O)O)C(=O)N2C)cc1 [SEQ ID No. 417, ClAc-F4F-G-MeF-G-3Py6Ph-G-D-E-Cha-Hgl-MeF4Me-L-P4Sh-C-bA-de-OH] (G[NMeF]G[3Pal(6-Ph)]GDE[Cha][Aad][NMePhe(4-Me)]L[cisHyp][β3hC][βAla][dE]-OH; linker N-13 via X3)
BMP4 inhibitory activity (in words) (BMP4): does not inhibit signal transduction of BMP 4 | aLISA BMP4 (BMP4): A (showed an inhibitory activity of 50% or more in a zone to which the peptide was added to in an amount of 0.2 nM) | BMP7 inhibitory activity (in words) (BMP7): same level of the BMP7 inhibitory activity as Noggin | aLISA BMP7 (BMP7): C (showed less than 50% of inhibitory activity in 10 nM-addition zone and showed 50% or more of inhibitory activity in 100 nM-addition zone)

CC(C)[C@@H]1NC(=O)[C@H](Cc2ccc(C(=O)O)cc2)NC(=O)[C@H](C(C)C)NC(=O)[C@H](CCCNC(=N)N)NC(=O)[C@H](CCC(=O)O)NC(=O)CSC[C@@H](C(=O)NCC(N)=O)NC(=O)[C@H](CO)NC(=O)[C@H](Cc2ccc(C(=O)O)cc2)NC(=O)[C@H](Cc2ccc(C(=O)O)cc2)NC(=O)[C@H](Cc2ccc(O)cc2)NC(=O)[C@H](Cc2ccc(-c3ccccc3)cc2)NC(=O)[C@@H]2C[C@@H](O)CN2C(=O)[C@H](Cc2ccc(O)cc2)NC(=O)[C@H](CCCCNC(=O)N2CCN(CC(=O)O)CC2)NC(=O)[C@H](Cc2ccc(-c3ccccc3)nc2)NC(=O)[C@H](CCCNC(=N)N)NC(=O)[C@H](CCCCNC(=O)N2CCN(CC(=O)O)CC2)NC1=O [compound 277] ({CH2CO}-ERV[Phe(4-COOH)]VK([CO-Piperazinyl(4-CH2COOH)])R[3Pal(6-Ph)]K([CO-Piperazinyl(4-CH2COOH)])Y[Hyp][Bip]Y[Phe(4-COOH)][Phe(4-COOH)]SCG-NH2; thioether N-17)
aLIZA BMP4 (0.2 nM) % inh (BMP4; BMP4 0.2 nM stimulus, peptide conc. in assay 0.02, 0.2, 2 nM, class symbols): B (showed less than 30% of inhibitory activity in 0.02 nM-addition zone and showed 30% or more of inhibitory activity in 0.2 nM-addition zone) | aLIZA BMP7 (10 nM) % inh (BMP7; BMP7 10 nM stimulus, peptide conc. in assay 100, 300, 1000 nM, class symbols): H (showed less than 30% of inhibitory activity in 300 nM-addition zone and showed 30% or more of inhibitory activity in 1,000 nM-addition zone)
